Results: paper PMC10009755, “Discovery and Characterization of BAY-805, a Potent and Selective Inhibitor of Ubiquitin-Specific Protease USP21” (Journal of Medicinal Chemistry, 2023)
Where two headings read alike, the source gives them in different places.

Assays:
[1] = log D measurement (HPLC); assay type: physicochemical; settings: reverse-phase HPLC, pH 7.5, pH 7.5, HPLC method; read-out: logD7.5
Description: log D values at pH 7.5 were recorded using an indirect method for determining hydrophobicity constants by reverse-phase HPLC. A series of compounds with well-known log D values were used for calibration. Test compounds were injected into the same HPLC system. The lipophilicity of compounds was then assessed by comparison to the calibration curve.

[2] = biological target: T1, USP21 (Homo sapiens, UniProt Q9UK80); assay: Thermal shift assay (TSA); assay type: binding; parameters: purchased Ubiquigent (DUBprofiler service); settings: 100 μM compound
T1 sequence (Q9UK80 1-565): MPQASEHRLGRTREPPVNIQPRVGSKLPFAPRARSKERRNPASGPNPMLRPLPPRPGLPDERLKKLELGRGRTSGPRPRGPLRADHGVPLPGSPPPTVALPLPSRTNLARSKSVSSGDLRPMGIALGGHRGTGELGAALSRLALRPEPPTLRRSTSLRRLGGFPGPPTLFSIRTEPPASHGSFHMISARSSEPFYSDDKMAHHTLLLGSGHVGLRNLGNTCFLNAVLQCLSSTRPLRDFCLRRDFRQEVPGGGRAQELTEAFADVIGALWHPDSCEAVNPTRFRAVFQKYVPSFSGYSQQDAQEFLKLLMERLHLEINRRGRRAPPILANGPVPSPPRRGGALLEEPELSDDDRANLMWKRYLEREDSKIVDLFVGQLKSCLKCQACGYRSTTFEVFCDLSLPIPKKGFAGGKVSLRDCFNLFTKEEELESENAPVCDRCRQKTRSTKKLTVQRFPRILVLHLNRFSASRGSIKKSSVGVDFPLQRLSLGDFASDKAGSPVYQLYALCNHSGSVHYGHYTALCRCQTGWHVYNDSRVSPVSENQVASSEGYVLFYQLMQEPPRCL
Description: Experiments were carried out with the QuantStudio7 Flex Real-Time PCR system (Thermo Fisher Scientific) in a 384-well plate format with 5 μL of reaction volume. Melting curves were obtained at an USP21 protein concentration of 3.8 μM and 5xSYPRO Orange (Invitrogen) using a buffer containing 20 mM Tris, pH 7.5; 150 mM NaCl; 10% glycerol; and 1.0 mM TCEP. […] For binding experiments, compounds were added from 10 mM stock solution to a final concentration of 100 μM. As a control, 1% DMSO was used. Scans were measured from 25 to 95 °C at a scanning rate of 4 °C/min. All TSA data were analyzed using a Genedata Assay Analyzer.

[3] = biological target: T1, USP21
Description: To this end, we developed a USP21 activity assay that is based on the deubiquitination of a STING-derived peptide (a USP21-specific substrate[17],[18]) by purified recombinant human full-length USP21 using time-resolved fluorescence resonance energy transfer (TR-FRET) technology (referred to as a homogeneous time-resolved fluorescence (HTRF)-assay, for details see the Supporting Information).[39]
All substrate and enzyme solutions were diluted in an assay buffer. […] Incubation time was 15–20 min at room temperature. […] The stop solution (DUB inhibitor PR619, Abcam) was prepared in 25 mM HEPES, pH 7.5 (Alfa Aesar) containing 0.01% BSA and then left for 10 min at room temperature before filtering with a 0.2 μM PES Membrane (Thermo Fisher). The reaction was stopped with the addition of 2 μL of 200 μM PR619. […] The plates were measured on the ViewLux in screening or PHERAstar FSX in compound profiling. […] The number of flashes per well was set to 3. All of the experimental data were plotted using Genedata analysis. The Z′-factor and S/B of the assay were >0.7 and ∼2, respectively.

[4] = biological target: T2, USP2 (Homo sapiens, UniProt O75604); assay: hUSP2 Ub-rhodamine 110 assay; assay type: biochemical; settings: arithmetic means of multiple measurements; read-out: IC50 hUSP2 Ub-Rhod
T2 construct: His tag
T2 sequence (O75604 259-605): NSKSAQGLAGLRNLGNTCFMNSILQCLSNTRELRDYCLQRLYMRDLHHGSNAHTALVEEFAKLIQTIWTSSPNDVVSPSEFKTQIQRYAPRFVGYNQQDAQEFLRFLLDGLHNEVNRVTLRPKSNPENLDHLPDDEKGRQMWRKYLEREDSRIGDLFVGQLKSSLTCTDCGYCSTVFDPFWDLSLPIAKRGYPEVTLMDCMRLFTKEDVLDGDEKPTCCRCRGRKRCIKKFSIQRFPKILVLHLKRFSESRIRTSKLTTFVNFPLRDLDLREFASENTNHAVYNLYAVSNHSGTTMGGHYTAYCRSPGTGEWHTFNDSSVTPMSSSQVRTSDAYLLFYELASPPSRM
Description: The final assay volume was 6 μL.

[5] = biological target: T1, USP21; remark: listed apart in the source
Description: The final assay volume was 6 μL. […] First, 2 μL of 1 nM USP21 (or selectivity enzyme) solution was added to the compound plate and preincubated for 15–20 min at room temperature. […] The reaction was stopped by 50 mM citric acid in 25 mM HEPES, pH 7.5, containing 0.01% BSA. […] The USP21 and USP22 were measured with five flashes and USP2 and USP7 in fly mode.

SMILES: O=C(CNC(=O)C1CCCC1)Nc1nnc(Cc2ccc([N+](=O)[O-])cc2)s1 [Compound 2, [O-][N+](=O)c1ccc(Cc2nnc(NC(=O)CNC(=O)C3CCCC3)s2)cc1]
- chromatographic logD [1]: 2.1
- ΔTm at 100 µM [2]: 3.5 °C
- IC50 [3]: > 25 µM
- IC50 [4]: > 25 µM
- IC50 [5]: > 25 µM
